# Test results published in PMC5224920, “Assessing the mechanism and therapeutic potential of modulators of the human Mediator complex-associated protein kinases” (eLife, 2016).
# Test system: 12 single or co-culture in vitro tissue models of primary cells
# Assay: Culture/co-culture cell model panel, extracellular biomarkers (DiscoveRx); for CCL2/MCP-1: reference of the scale not given here; for CXCL8/IL-8: reference of the scale not given here; for IL-1alpha: reference of the scale not given here; for PBMC Cytotoxicity: reference of the scale not given here; for SRB: reference of the scale not given here
# Format: cell-based, human
# Conditions: for CCL2/MCP-1 / CCL26/Eotaxin-3 / CD54/ICAM-1 / CD90 / CD106/VCAM-1 / CXCL8/IL-8 / IL-1alpha / Keratin 8/18 / MMP-1 / MMP-3 / MMP-9 / PAI-I / SRB / tPA / uPA: BF4T
compound,measurement,setting,value
Cc1n[nH]c2ncc(C(=O)N3CCC[C@H]3c3ccc(Cl)cc3)cc12 [CMPD4],CCL2/MCP-1,1.37E1 nM,0.00746
same,CCL26/Eotaxin-3,1.37E1 nM,-0.134
same,CD54/ICAM-1,1.37E1 nM,-0.057
same,CD90,1.37E1 nM,-0.011
same,CD106/VCAM-1,1.37E1 nM,-0.028
same,CXCL8/IL-8,1.37E1 nM,-0.024
same,IL-1alpha,1.37E1 nM,-0.024
same,Keratin 8/18,1.37E1 nM,-0.00271
same,MMP-1,1.37E1 nM,-0.015
same,MMP-3,1.37E1 nM,0.049
same,MMP-9,1.37E1 nM,-0.026
same,PAI-I,1.37E1 nM,-0.020
same,SRB,1.37E1 nM,0.005
same,tPA,1.37E1 nM,0.049
same,uPA,1.37E1 nM,0.009
same,CCL2/MCP-1,3.33E3 nM,-0.061
same,CCL26/Eotaxin-3,3.33E3 nM,-0.184
same,CD54/ICAM-1,3.33E3 nM,-0.074
same,CD90,3.33E3 nM,0.011
same,CD106/VCAM-1,3.33E3 nM,0.002
same,CXCL8/IL-8,3.33E3 nM,-0.042
same,IL-1alpha,3.33E3 nM,-0.055
same,Keratin 8/18,3.33E3 nM,-0.022
same,MMP-1,3.33E3 nM,-0.012
same,MMP-3,3.33E3 nM,-0.048
same,MMP-9,3.33E3 nM,-0.00425
same,PAI-I,3.33E3 nM,-0.026
same,SRB,3.33E3 nM,0.006
same,tPA,3.33E3 nM,0.015
same,uPA,3.33E3 nM,-0.019
same,CCL2/MCP-1,3.70E2 nM,-0.039
same,CCL26/Eotaxin-3,3.70E2 nM,-0.177
same,CD54/ICAM-1,3.70E2 nM,-0.076
same,CD90,3.70E2 nM,-0.00567
same,CD106/VCAM-1,3.70E2 nM,-0.004
same,CXCL8/IL-8,3.70E2 nM,-0.042
same,IL-1alpha,3.70E2 nM,-0.090
same,Keratin 8/18,3.70E2 nM,-0.012
same,MMP-1,3.70E2 nM,-0.008
same,MMP-3,3.70E2 nM,0.015
same,MMP-9,3.70E2 nM,-0.018
same,PAI-I,3.70E2 nM,0.003
same,SRB,3.70E2 nM,3.34e-5
same,tPA,3.70E2 nM,0.027
same,uPA,3.70E2 nM,-0.022
same,CCL2/MCP-1,4.12E1 nM,-0.019
same,CCL26/Eotaxin-3,4.12E1 nM,-0.203
same,CD54/ICAM-1,4.12E1 nM,-0.044
same,CD90,4.12E1 nM,0.0044
same,CD106/VCAM-1,4.12E1 nM,-0.036
same,CXCL8/IL-8,4.12E1 nM,-0.031
same,IL-1alpha,4.12E1 nM,-0.038
same,Keratin 8/18,4.12E1 nM,0.00849
same,MMP-1,4.12E1 nM,-0.002
same,MMP-3,4.12E1 nM,0.027
same,MMP-9,4.12E1 nM,-0.011
same,PAI-I,4.12E1 nM,-0.009
same,SRB,4.12E1 nM,0.000731
same,tPA,4.12E1 nM,0.025
same,uPA,4.12E1 nM,-0.00027
same,CCL2/MCP-1,4.57E0 nM,0.041
same,CCL26/Eotaxin-3,4.57E0 nM,-0.086
same,CD54/ICAM-1,4.57E0 nM,-0.034
same,CD90,4.57E0 nM,-0.000153
same,CD106/VCAM-1,4.57E0 nM,-0.018
same,CXCL8/IL-8,4.57E0 nM,0.024
same,IL-1alpha,4.57E0 nM,-0.020
same,Keratin 8/18,4.57E0 nM,-0.00266
same,MMP-1,4.57E0 nM,0.000794
same,MMP-3,4.57E0 nM,0.054
same,MMP-9,4.57E0 nM,-0.023
same,PAI-I,4.57E0 nM,0.019
same,SRB,4.57E0 nM,-0.008
same,tPA,4.57E0 nM,0.057
same,uPA,4.57E0 nM,-0.00538
same,B cell Proliferation,"BT, 1.00E4 nM",-0.013
same,PBMC Cytotoxicity,"BT, 1.00E4 nM",-0.020
same,Secreted IgG,"BT, 1.00E4 nM",-0.332
same,sIL-2,"BT, 1.00E4 nM",0.00561
same,sIL-6,"BT, 1.00E4 nM",-0.027
same,sIL-17A,"BT, 1.00E4 nM",0.321
same,sIL-17F,"BT, 1.00E4 nM",-0.397
